In PMC10518255, “A first-in-class pan-lysyl oxidase inhibitor impairs stromal remodeling and enhances gemcitabine response and survival in pancreatic cancer” (Nature Cancer, 2023):
Several values for one entry are separate records, joined by “and”; a condition that tells them apart may be missing. Identical values can stand only once.

Legend:
[1] = Tissue concentration by LC-MS/MS after single oral dose of 30 mg/kg (plasma, kidney, liver, lung, heart, ear; Extended Data Fig. 3e)
Procedure: PXS-5505 concentration, as measured by LC–MS/MS, in rat plasma, kidney, liver, lung, heart and ear samples following a single oral dose of 30 mg/kg (n = 3 independent animals). Data presented as mean values +/− SD. f. Plasma concentration profile over time in mice following oral administration of PXS-5505 (30 mg/kg) (n = 3 independent animals) g. Schematic of amplex red coupled fluorometric lysyl oxidase family activity assay whereby putrescine (put) is used as a substrate resulting in the release of H2O2 and its subsequent catalysis by horseradish peroxidase (HRP) to […] amplex red to resorufin resulting in a fluorescently detectable signal. […] Data presented as mean values +/− SD. h. qRT-PCR showing in vitro 48 hour treatment of KPC CAFs or cancer cells with 30 μM PXS-5505 or vehicle control (n = 3 biological repeats with 3 technical replicates per biological repeat). Data presented as mean values +/− SD. Relative fold expression of lysyl oxidase family members from PXS-5505 treated samples compared to control were determined by the 2^–∆∆Ct approach. p-values determined by unpaired, nonparametric t-test with a Mann–Whitney U correction (comparison between two groups). i. 2D in vitro cell viability assay (MTS assay) for KPC CAFs and CCs (n = 3 biological repeats with 3 technical replicates per biological repeat) in response to PXS-5505. Data presented as mean values +/− SD. Ordinary one-way ANOVA for multiple comparison test performed. j. 3D in vitro cell viability assay (MTS assay) for KPC CAFs and CCs (n = 3 biological repeats with 3 technical replicates per biological repeat) in response to PXS-5505. Data presented as mean values +/− SD. Ordinary one-way ANOVA for multiple comparison test performed. Source data

[2] = target: T1, Recombinant LOXL-3 (Homo sapiens, UniProt P58215); experiment: Lysyl oxidase enzymatic activity, fluorescence-based assay, IC50; format: biochemical
T1 sequence (P58215 26-753): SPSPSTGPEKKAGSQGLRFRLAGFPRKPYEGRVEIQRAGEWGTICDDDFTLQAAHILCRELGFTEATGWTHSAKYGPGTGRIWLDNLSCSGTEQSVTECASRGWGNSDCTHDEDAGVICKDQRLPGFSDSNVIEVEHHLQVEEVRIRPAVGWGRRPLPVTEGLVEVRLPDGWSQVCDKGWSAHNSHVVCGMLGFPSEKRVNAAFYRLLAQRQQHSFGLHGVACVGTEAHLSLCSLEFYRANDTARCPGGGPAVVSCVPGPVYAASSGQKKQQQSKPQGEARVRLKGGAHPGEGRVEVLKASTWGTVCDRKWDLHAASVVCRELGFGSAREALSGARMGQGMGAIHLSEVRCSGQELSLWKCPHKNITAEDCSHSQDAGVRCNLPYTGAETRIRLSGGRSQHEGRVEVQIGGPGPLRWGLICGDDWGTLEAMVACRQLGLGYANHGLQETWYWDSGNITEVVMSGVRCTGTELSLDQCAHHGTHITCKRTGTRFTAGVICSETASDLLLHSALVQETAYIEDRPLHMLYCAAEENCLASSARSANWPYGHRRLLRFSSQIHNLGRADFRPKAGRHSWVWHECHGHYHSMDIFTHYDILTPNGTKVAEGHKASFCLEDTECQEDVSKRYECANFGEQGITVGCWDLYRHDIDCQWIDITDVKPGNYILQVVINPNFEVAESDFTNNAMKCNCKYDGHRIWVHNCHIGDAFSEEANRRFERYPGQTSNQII
Source text: (§1) Data are presented as mean ± s.d. […] Data presented as mean ± s.d. […] Source data TEXT PRINTED IN THE PICTURE: (b) PXS-5505: Recombinant DAO IC50 (nM): >30,000; Recombinant SSAO/VAP1 IC50 (nM): >30,000; Recombinant MAO-A IC50 (nM): >30,000; Recombinant MAO-B IC50 (nM): >30,000 | (f) PXS-5505: Fibroblast LOX IC50 (nM): 4,930; Recombinant LOXL-1 IC50 (nM): 1,590; Recombinant LOXL-2 IC50 (nM): 570; Recombinant LOXL-3 IC50 (nM): 1,800; Recombinant LOXL-4 IC50 (nM): 190
(§2) In characterizing PXS-5505, the half-maximum inhibitory concentration (IC50) values for each of the lysyl oxidase family members were determined by measuring enzymatic activity using a fluorescence-based assay.
(§3) Data presented as mean values +/− SD. f. […] Data presented as mean values +/− SD. […] Data presented as mean values +/− SD. […] Data presented as mean values +/− SD. Ordinary one-way ANOVA for multiple comparison test performed. Source data

[3] = target: T2, Fibroblast LOX (Homo sapiens, UniProt P28300); experiment: as above; format: biochemical
T2 construct: endogenous in cells
T2 sequence (P28300 169-417): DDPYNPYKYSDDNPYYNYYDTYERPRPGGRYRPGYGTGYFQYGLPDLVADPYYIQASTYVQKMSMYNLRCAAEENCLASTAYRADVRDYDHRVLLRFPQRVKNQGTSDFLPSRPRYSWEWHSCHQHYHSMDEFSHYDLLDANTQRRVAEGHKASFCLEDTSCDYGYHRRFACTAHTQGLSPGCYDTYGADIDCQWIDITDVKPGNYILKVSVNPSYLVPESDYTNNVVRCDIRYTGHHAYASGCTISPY
Source text: as §1, §2, §3

[4] = rat, single oral dose 30 mg/kg, 1 hr, n = 3
[5] = log(Concentration) -4.52288, replicates, 30 µM
[6] = log(Concentration) -5, replicates, 10 µM
[7] = log(Concentration) -5.47712, replicates, 3.333 µM
[8] = log(Concentration) -5.95424, replicates, 1.111 µM
[9] = log(Concentration) -6.43136, replicates, 0.3704 µM
[10] = log(Concentration) -6.90849, replicates, 0.1235 µM

## Cl.Cl.NC/C=C(\F)CS(=O)(=O)c1cccc2cccnc12.O [PXS-5505, (Z)-3-fluoro-4-(quinolin-8-ylsulfonyl)but-2-en-1-amine dihydrochloride monohydrate]
[1]; after oral administration
  tissue penetration: penetrates core and peripheral matrix-rich tissues (the ear pinnae) well
[1]; [4]
  PXS-5505 concentration by LC-MS/MS, ear, Mean: 1911.2
  PXS-5505 concentration by LC-MS/MS, heart, Mean: 5777.3
  PXS-5505 concentration by LC-MS/MS, kidney, Mean: 19237.2
  PXS-5505 concentration by LC-MS/MS, liver, Mean: 32467.6
  PXS-5505 concentration by LC-MS/MS, lung, Mean: 954.9
  PXS-5505 concentration by LC-MS/MS, plasma, Mean: 3609.6
[2]
  IC50: 1.8 µM
[2]; [5]
  LOXL3 activity, IC50 determination curve: 0.995 and -0.1448 and -2.1827
[2]; [6]
  LOXL3 activity, IC50 determination curve: 5.702
[2]; [7]
  LOXL3 activity, IC50 determination curve: 36.152 and 26.2163
[2]; [8]
  LOXL3 activity, IC50 determination curve: 67.7528 and 54.7261
[2]; [9]
  LOXL3 activity, IC50 determination curve: 85.8582 and 75.7761
[2]; [10]
  LOXL3 activity, IC50 determination curve: 94.2403 and 83.1634
[2]; log(Concentration) -7.38561, replicates, 0.04115 µM
  LOXL3 activity, IC50 determination curve: 97.9203 and 84.9527
[2]; log(Concentration) -7.86273, replicates, 0.01372 µM
  LOXL3 activity, IC50 determination curve: 99.768 and 85.7835
[2]; log(Concentration) -8.33985, replicates, 0.004572 µM
  LOXL3 activity, IC50 determination curve: 101.158 and 89.5879
[2]; log(Concentration) -8.81697, replicates, 0.001524 µM
  LOXL3 activity, IC50 determination curve: 100.452 and 87.3896
[2]; log(Concentration) -9.29409, replicates, 0.000508 µM
  LOXL3 activity, IC50 determination curve: 100.732 and 88.8381
[2]; read-out: LOXL3 activity, IC50 determination curve, log(Concentration) -5, replicates
  activity at 10 µM: 7.74%
[2]; read-out: LOXL3 activity, IC50 determination curve, log(Concentration) -5.47712, replicates
  activity at 3.333 µM: 30.5%
[2]; read-out: LOXL3 activity, IC50 determination curve, log(Concentration) -5.95424, replicates
  activity at 1.111 µM: 62.6%
[2]; read-out: LOXL3 activity, IC50 determination curve, log(Concentration) -6.43136, replicates
  activity at 0.3704 µM: 82.5%
[2]; read-out: LOXL3 activity, IC50 determination curve, log(Concentration) -6.90849, replicates
  activity at 0.1235 µM: 98.2%
[2]; read-out: LOXL3 activity, IC50 determination curve, log(Concentration) -7.38561, replicates
  activity at 0.04115 µM: 96.9%
[2]; read-out: LOXL3 activity, IC50 determination curve, log(Concentration) -7.86273, replicates
  activity at 0.01372 µM: 96.8%
[2]; read-out: LOXL3 activity, IC50 determination curve, log(Concentration) -8.33985, replicates
  activity at 0.004572 µM: 99.1%
[2]; read-out: LOXL3 activity, IC50 determination curve, log(Concentration) -8.81697, replicates
  activity at 0.001524 µM: 100%
[2]; read-out: LOXL3 activity, IC50 determination curve, log(Concentration) -9.29409, replicates
  activity at 0.000508 µM: 99.7%
[3]
  IC50: 4.93 µM
[3]; [5]
  LOX activity, IC50 determination curve: -1.8303 and 0.6579 and 0.3247
[3]; [6]
  LOX activity, IC50 determination curve: 3.883 and 10.1684 and 20.9265 and 5.02 and 4.758 and 6.391 and 6.186 and 6.029 and 20.5369 and 17.2584 and 29.8226 and 3.623 and 26.5163 and 8.055 and 5.279 and 6.036 and 3.683 and 8.994 and 2.62 and 5.888
[3]; [7]
  LOX activity, IC50 determination curve: 26.3616 and 38.5547 and 37.4589 and 30.4803 and 26.5908 and 26.0097 and 25.4086 and 23.2841 and 47.0211 and 41.5569 and 54.9662 and 30.9927 and 55.9602 and 33.6452 and 26.0055 and 25.2076 and 21.7888 and 33.3569 and 26.6311 and 45.3445
[3]; [8]
  LOX activity, IC50 determination curve: 65.9487 and 69.3911 and 60.7313 and 65.7321 and 64.7348 and 60.684 and 73.4741 and 69.7585 and 72.3228 and 61.8434 and 76.5191 and 70.4394 and 64.4999 and 59.1047 and 54.3417 and 66.355 and 58.9798 and 55.4122
[3]; [9]
  LOX activity, IC50 determination curve: 87.2177 and 88.3395 and 79.2811 and 66.9609 and 65.4146 and 85.3577 and 83.5816 and 83.3016 and 85.8139 and 85.7077 and 63.7427 and 87.2402 and 81.0139 and 93.5693 and 81.2357 and 80.2494 and 78.0142 and 85.6866 and 82.1322 and 88.2018
[3]; [10]
  LOX activity, IC50 determination curve: 96.5523 and 90.6919 and 85.8494 and 82.293 and 94.8665 and 94.3951 and 93.9784 and 95.943 and 87.9121 and 85.7594 and 95.8669 and 88.1459 and 102.086 and 95.1473 and 93.948 and 87.9189 and 98.6889 and 90.9023 and 91.7994
[3]; read-out: LOX activity, IC50 determination curve, log(Concentration) -6.90849, replicates
  activity at 0.1235 µM: 99.8%
[3]; read-out: LOX activity, IC50 determination curve, log(Concentration) -7.86273, replicates
  activity at 0.01372 µM: 104%
[3]; read-out: LOX activity, IC50 determination curve, log(Concentration) -8.33985, replicates
  activity at 0.004572 µM: 102%
[3]; read-out: LOX activity, IC50 determination curve, log(Concentration) -8.81697, replicates
  activity at 0.001524 µM: 108%
[3]; read-out: LOX activity, IC50 determination curve, log(Concentration) -9.29409, replicates
  activity at 0.000508 µM: 105%
